Measured values taken from patent publication US12006294B2, “Therapeutic compounds” (REGENTS OF THE UNIVERSITY OF MINNESOTA, priority 2017, dated 2024).
Counter-ions that a name gives are not always drawn. Like-named read-outs stand apart in the source and are kept apart here.

What was measured:
CAD5 cells = type: cell-based
Hela Cells = assay: Cellular ER stress model (tunicamycin, WST-8 cell viability); settings: for % Cell Survival Cmpd(2.5 μM) + Tuni: compound 2.5 μM + tunicamycin, WST-8 viability 48 hours after tunicamycin treatment
[1] = Homo sapiens, HeLa, 48 h, read-out: % Cell Survival Cmpd(2.5 μM) + Tuni, Hela cells, compound 2.5 μM + tunicamycin, WST-8 viability 48 hours after tunicamycin treatment
[2] = Homo sapiens, HeLa, 48 h, read-out: Compounds ERS (vs Tn), ERS activity vs Tuni = % cell survival (compound)/% cell survival (tunicamycin), compound 2.5 μM

Row | Compound | viability at 2.5 µM (Hela Cells; [1]) [%] | viability at 2.5 µM (Hela Cells; [2]) [%] | further results
1 | N=C(N)N/N=C/c1c(Cl)cc(O)cc1Cl [BC1-167-1, (E)-2-(2,6-dichloro-4-hydroxybenzylidene)hydrazinecarboximidamide acetate] |  |  | 1/Elispot (CAD5 cells): 0.87; AntiPrion (Number of Cells × 10^4) (CAD5 cells): 9 × 10^4; EliSpot (Spots/10000 Cells) (CAD5 cells): 1500 Spots/10000 Cells; Elispot (vs PC) (CAD5 cells): 1.15; AntiERStress (% Cell Survival) (Hela Cells; HeLa cells, tunicamycin 48 hours, WST-8): 45.93 % Cell Survival
2 | N=C(N)NCC(O)c1c(Cl)cccc1Cl (centres unmarked) [JM3-27-2, 1-(2-(2,6-dichlorophenyl)-2-hydroxyethyl)guanidine] | 28.6 | 109 | 
3 | N=C(N)N/N=C/c1c(Cl)ccnc1Cl [JM3-29-2, (E)-2-((2,4-dichloropyridin-3-yl)methylene)hydrazine-1-carboximidamide acetate] | 32.2 | 122 | 
4 | N=C(N)N/N=C/c1ccc(Br)cc1Cl [JM3-57-2, (E)-2-(4-bromo-2-chlorobenzylidene)hydrazine-1-carboximidamide acetate] | 28.1 | 107 | 
5 | N=C(N)N/N=C/c1ccc(-c2ccccc2)cc1Cl [JM3-63-2, (E)-2-((3-chloro-[1,1′-biphenyl]-4-yl)methylene)hydrazine-1-carboximidamide acetate] | 15.9 | 60 | 
6 | N=C(N)N/N=C/c1c(Cl)cc(-c2ccccc2)cc1Cl [JM3-67-2, (E)-2-((3,5-dichloro-[1,1′-biphenyl]-4-yl)methylene)hydrazine-1-carboximidamide] | 23.3 | 102 | 
7 | CCc1cccc(Cl)c1/C=N/NC(=N)N [JM3-81-2, (E)-2-(2-chloro-6-ethylbenzylidene)hydrazine-1-carboximidamide acetate] | 29.9 | 130 | 
8 | CC(C)c1cccc(Cl)c1/C=N/NC(=N)N [JM3-89-2, (E)-2-(2-chloro-6-isopropylbenzylidene)hydrazine-1-carboximidamide acetate] | 22 | 96 | 
9 | CC(C)c1cccc(C(C)C)c1/C=N/NC(=N)N [JM3-99-2, (E)-2-(2,6-diisopropylbenzylidene)hydrazine-1-carboximidamide] | 20.9 | 91 | 
10 | Clc1cccc(Cl)c1Cc1ncc[nH]1 [JM3-131-2, 2-(2,6-dichlorobenzyl)-1H-imidazole] | 22.8 | 100 | 
11 | N=C(N)N/N=C/c1c(C(F)(F)F)cccc1C(F)(F)F [JM3-141-2, (E)-2-(2,6-bis(trifluoromethyl)benzylidene)hydrazine-1-carboximidamide acetate] | 19.6 | 86 | 
12 | Clc1cccc(/C=N/NC2=NCCN2)c1Cl [JM3-149-2, (E)-2-(2-(2,3-dichlorobenzylidene)hydrazinyl)-4,5-dihydro-1H-imidazole hydrochloride] | 29.1 | 125 | 
13 | Clc1ccc(Cl)c(/C=N/NC2=NCCN2)c1Cl [JM3-151-2, (E)-2-(2-(2,3,6-trichlorobenzylidene)hydrazinyl)-4,5-dihydro-1H-imidazole hydrochloride] | 24.2 | 104 | 
14 | Clc1cccc(/C=N/NC2=NCCCN2)c1Cl [JM3-153-2, (E)-2-(2-(2,3-dichlorobenzylidene)hydrazinyl)-1,4,5,6-tetrahydropyrimidine hydrochloride] | 36 | 155 | 
15 | Clc1ccc(Cl)c(/C=N/NC2=NCCCN2)c1Cl [JM3-155-2, (E)-2-(2-(2,3,6-trichlorobenzylidene)hydrazinyl)-1,4,5,6-tetrahydropyrimidine hydrochloride] | 31.2 | 135 | 
16 | CCCCNC(=N)N/N=C/c1c(Cl)cccc1Cl [JM3-161-2, (E)-N-butyl-2-(2,6-dichlorobenzylidene)hydrazine-1-carboximidamide hydroiodide] | 14.7 | 63 | 
17 | Clc1cccc(CC2=NCCN2)c1Cl [JM3-179-2, 2-(2,3-dichlorobenzyl)-4,5-dihydro-1H-imidazole] | 20.4 | 88 | 
18 | Clc1cccc(CC2=NCCCN2)c1Cl [JM3-181-2, 2-(2,3-dichlorobenzyl)-1,4,5,6-tetrahydropyrimidine] | 19.6 | 102 | 
19 | N=C(N)N/N=C/c1ccccc1I [JM3-183-2, (E)-2-(2-iodobenzylidene)hydrazine-1-carboximidamide acetate] | 24.2 | 104 | 
20 | Cc1[nH]c(N/N=C/c2c(Cl)cccc2Cl)nc(=O)c1C [JM3-191-2, (E)-2-(2-(2,6-dichlorobenzylidene)hydrazinyl)-5,6-dimethylpyrimidin-4(1H)-one] | 40.6 | 175 | 
21 | Cc1[nH]c(N/N=C/c2cccc(Cl)c2Cl)nc(=O)c1C [JM3-195-2, (E)-2-(2-(2,3-dichlorobenzylidene)hydrazinyl)-5,6-dimethylpyrimidin-4(1H)-one] | 29.7 | 128 | 

Row | Compound | viability at 2.5 µM (Hela Cells; [1]) [%] | viability at 2.5 µM (Hela Cells; [2]) [%] | further results
22 | Cc1cc(=O)nc(N/N=C/c2c(Cl)cccc2Cl)[nH]1 [JM3-197-2, (E)-2-(2-(2,6-dichlorobenzylidene)hydrazinyl)-6-methylpyrimidin-4(1H)-one] | 20.4 | 106 | 
23 | Cc1cc(=O)nc(N/N=C/c2cccc(Cl)c2Cl)[nH]1 [JM3-199-2, (E)-2-(2-(2,3-dichlorobenzylidene)hydrazinyl)-6-methylpyrimidin-4(1H)-one] | 22.9 | 120 | 
24 | Cc1cc(=O)nc(N/N=C/c2c(Cl)ccc(Cl)c2Cl)[nH]1 [JM3-201-2, (E)-6-methyl-2-(2-(2,3,6-trichlorobenzylidene)hydrazinyl)pyrimidin-4(1H)-one] | 20 | 104 | 
25 | Cc1[nH]c(N/N=C/c2c(Cl)ccc(Cl)c2Cl)nc(=O)c1C [JM3-205-2, (E)-5,6-dimethyl-2-(2-(2,3,6-trichlorobenzylidene)hydrazinyl)pyrimidin-4(1H)-one] | 20.7 | 108 | 
26 | Cc1[nH]c(N/N=C/c2c(F)cccc2Cl)nc(=O)c1C [JM3-207-2, (E)-2-(2-(2-chloro-6-fluorobenzylidene)hydrazinyl)-5,6-dimethylpyrimidin-4(1H)-one] | 23.1 | 120 | 
27 | Cc1[nH]c(N/N=C/c2ccc(Cl)c(Cl)c2)nc(=O)c1C [JM3-209-2, (E)-2-(2-(3,4-dichlorobenzylidene)hydrazinyl)-5,6-dimethylpyrimidin-4(1H)-one] | 21.6 | 113 | 
28 | Cc1cc(=O)nc(N/N=C/c2ccc(Cl)c(Cl)c2)[nH]1 [JM3-211-2, (E)-2-(2-(3,4-dichlorobenzylidene)hydrazinyl)-6-methylpyrimidin-4(1H)-one] | 20.2 | 105 | 
29 | Cc1[nH]c(N/N=C/c2ccccc2Cl)nc(=O)c1C [JM3-213-2, (E)-2-(2-(2-chlorobenzylidene)hydrazinyl)-5,6-dimethylpyrimidin-4(1H)-one] | 22.8 | 119 | 
30 | Cc1cc(=O)nc(N/N=C/c2ccccc2Cl)[nH]1 [JM3-215-3, (E)-2-(2-(2-chlorobenzylidene)hydrazinyl)-6-methylpyrimidin-4(1H)-one] | 21 | 110 | 
31 | NC(=O)N/N=C/c1ccccc1Br [JM3-219-4, (E)-2-(2-bromobenzylidene)hydrazine-1-carboxamide hydrochloride] | 20 | 104 | 
32 | NC(=O)N/N=C/c1ccccc1F [JM3-221-2, (E)-2-(2-fluorobenzylidene)hydrazine-1-carboxamide hydrochloride] | 28.9 | 122 | 
33 | NC(=O)N/N=C/c1ccccc1Cl [JM3-223-2, (E)-2-(2-chlorobenzylidene)hydrazine-1-carboxamide hydrochloride] | 28 | 118 | 
34 | NC(=O)N/N=C/c1ccccc1I [JM3-225-2, (E)-2-(2-iodobenzylidene)hydrazine-1-carboxamide hydrochloride] | 22.8 | 96 | 
35 | N=C(N)NNCc1c(Cl)cccc1Cl [JM3-227-2, 2-(2,6-dichlorobenzyl)hydrazine-1-carboximidamide] |  |  | % Cell Survival Cmpd(2.5 μM) + Tuni (Hela Cells; Hela cells): 27.92%
36 | N=C(N)N/N=C/Cc1c(Cl)cccc1Cl [JM3-239-2, (E)-2-(2-(2,6-dichlorophenyl)ethylidene)hydrazine-1-carboximidamide acetate] | 28.1 | 119 | 
37 | N=C1NCCCN1/N=C/c1c(Cl)cccc1Cl [JM3-255-2, (E)-1-((2,6-dichlorobenzylidene)amino)tetrahydropyrimidin-2(1H)-imine hydrobromide] | 24.5 | 104 | 
38 | CN(/N=C/c1c(Cl)cccc1Cl)C(=N)N [JM3-257-2, (E)-2-(2,6-dichlorobenzylidene)-1-methylhydrazine-1-carboximidamide hydroiodide] | 31.2 | 132 | 
39 | CC(Oc1c(Cl)cccc1Cl)C1=NCCN1 (centres unmarked) [Lofexidine Hcl] | 35.4 | 107 | 
40 | O=C(/C=C/c1ccccc1)NC(NC(=S)Nc1ccc(Cl)cc1)C(Cl)(Cl)Cl (centres unmarked) [Sal003] |  |  | Compounds ERS (vs Tn) (Hela Cells; ERS activity vs Tuni = % cell survival (compound)/% cell survival (tunicamycin), compound 2.5 μM): 1.03; % Cell Survival Cmpd(2.5 μM) + Tuni (Hela Cells; Hela cells): 33.17%
41 | O=C(/C=C/c1ccccc1)NC(NC(=S)Nc1cccc2cccnc12)C(Cl)(Cl)Cl (centres unmarked) [Salubrinal, reference compound] | 23.8 | 103 | % Cell Survival Cmpd + Tuni (Hela Cells; Hela cells, Salubrinal 25 μM + tunicamycin, WST-8 48 hours): 38.46%; viability at 25 µM (Hela Cells; Homo sapiens, HeLa, 48 h, read-out: Compounds ERS (vs Tn), % cell survival (compound)/% cell survival (tunicamycin), Salubrinal 25 μM): 116%
